# Reference: US6034065A, “Elucidation and synthesis of antineoplastic tetrapeptide phenethylamides of dolastatin 10” (Arizona Board of Regents, priority 1992, dated 2000)
# Tests used:
# Assay type in all cases: cell-based
# human cancer cell line = test: Human cancer cell line activity compared to dolastatin 10
# P-388 = test: Mouse leukemia cell P-388 growth inhibition
# Protocol: (§1) The structural modifications of dolastatin 10 whose design and synthesis are described herein were evaluated for antineoplastic activity. This evaluation was conducted using the standard protocols established by National Cancer Institute (NCI) as described above. These protocols do evaluate whether the substances in question have antineoplastic activity against certain human cancer cell lines derived from human cancer patients. Substantial activity was found in those compounds tested. The antineoplastic activity of the compounds is reported below in Table 1. The results of the 60 cell line NCI in vitro testing of compound 6b conducted Jun. 22, 1992, is reported below in Table 2.
# OVCAR-3 = test: NCI human cancer cell line test, Ovarian OVCAR-3
# From the text: (§2) Only two hundred years ago, many diseases ravaged humankind. Many of these diseases have been controlled or eradicated. In the development of the means to treat or control these diseases, work with the appropriate common experimental animals was of critical importance. With the various types of cancers, and with the HIV virus, such work is presently ongoing. The research for the treatment of various types of cancer is coordinated by the National Cancer Institute (NCI).NCI, as a government entity, has been charged with assisting anti-cancer research. To establish whether a substance has anti cancer activity, NCI has established a protocol. This protocol, which involves testing a substance against a cell line panel containing 60 human tumor cell lines, has been verified, and is accepted in scientific circles. This protocol, and the established statistical means of evaluating the results obtained therefrom have been amply described in the literature. See e.g. Principles & Practice of Oncology PPO Updates, Volume 3, Number 10, October 1989, by Michael R. Boyd, M.D., Ph.D., for a description of the protocol. The statistical analysis is explained in "Display and Analysis of Patterns of Differential Activity of Drugs Against Human Tumor Cell Lines: Development of Mean Graph and COMPARE Algorithm" Journal of the National Cancer Institute Reports Vol. 81, No. 14, Pg. 1088, Jul. 14, 1989, by K. D. Paull et al. Both articles are incorporated herein by this reference as if fully set forth.
# as §1
# SF-295 = test: NCI human cancer cell line test, CNS SF-295
# From the text: as §2, §1
# A498 = test: NCI human cancer cell line test, Renal A498
# From the text: as §2, §1
# NCI-460 = test: NCI human cancer cell line test, Lung-NSC NCI-460
# From the text: as §2, §1
# KM20L2 = test: NCI human cancer cell line test, Colon KM20L2
# From the text: as §2, §1
# SK-MEL-3 = test: NCI human cancer cell line test, Melanoma SK-MEL-3
# From the text: as §2, §1
Substance,human cancer cell line activity as compared to dolastatin 10 (human cancer cell line),ED-50 (P-388),GI-50 (OVCAR-3),LC-50 (OVCAR-3),TGI (OVCAR-3),GI-50 (SF-295),LC-50 (SF-295),TGI (SF-295),GI-50 (A498),LC-50 (A498),TGI (A498),GI-50 (NCI-460),LC-50 (NCI-460),TGI (NCI-460),GI-50 (KM20L2),LC-50 (KM20L2),TGI (KM20L2),GI-50 (SK-MEL-3),LC-50 (SK-MEL-3),TGI (SK-MEL-3)
R-Doe-isodolastatin 10,did not show any significant difference,,,,,,,,,,,,,,,,,,,
"[2S-[1[1R*(R*),2S*],2R*[1S*,2S*]]]-N,N-dimethyl-L-valyl-N-[2-methoxy-4-[2- [1-methoxy-2-methyl-3-oxo-3-[[2-phenyl-ethyl]amino]propyl]-1-pyrrolidinyl-1-(methylpropyl)-4-oxobutyl]-N-methyl-L-valineamide [Compound 6b]",,0.0005 mg/mL,0.000004 µg/mL,< 0.0001 µg/mL,0.027 ng/mL,0.000014 µg/mL,< 0.0001 µg/mL,0.042 ng/mL,0.000013 µg/mL,< 0.0001 µg/mL,< 0.1 ng/mL,0.000005 µg/mL,< 0.0001 µg/mL,< 0.1 ng/mL,0.000005 µg/mL,< 0.0001 µg/mL,< 0.1 ng/mL,0.000012 µg/mL,< 0.0001 µg/mL,< 0.1 ng/mL
"[2S-[1[1R*(R*),2S*],2R*[1S*,2S*]]]-N,N-dimethyl-L-valyl-N-[2-methoxy-4-[2- [1-methoxy-2-methyl-3-oxo-3-[[3-phenyl-propyl]amino]propyl]-1-pyrrolidinyl- 1-(methylpropyl)-4-oxobutyl]-N-methyl-L-valineamide [Compound 6c]",,0.00044 mg/mL,0.00018 µg/mL,< 0.01 µg/mL,0.54 ng/mL,0.00028 µg/mL,< 0.01 µg/mL,0.79 ng/mL,0.00039 µg/mL,< 0.01 µg/mL,< 10 ng/mL,0.00031 µg/mL,< 0.01 µg/mL,< 10 ng/mL,0.00033 µg/mL,< 0.01 µg/mL,< 10 ng/mL,0.00031 µg/mL,< 0.01 µg/mL,< 10 ng/mL
"[2S-[1[1R*(R*),2S*],2R*[1S*,2S*]]]-N,N-dimethyl-L-valyl-N-[2-methoxy-4-[2- [1-methoxy-2-methyl-3-oxo-3-benzylamino-propyl]-1-pyrrolidinyl-1-(methylpropyl)-4-oxobutyl]-N-methyl-L-valineamide [Compound 6a]",,0.00378 mg/mL,< 0.0001 µg/mL,< 0.0001 µg/mL,< 0.1 ng/mL,< 0.0001 µg/mL,< 0.0001 µg/mL,< 0.1 ng/mL,< 0.0001 µg/mL,< 0.0001 µg/mL,< 0.1 ng/mL,< 0.0001 µg/mL,< 0.0001 µg/mL,< 0.1 ng/mL,< 0.0001 µg/mL,< 0.0001 µg/mL,< 0.1 ng/mL,< 0.0001 µg/mL,< 0.0001 µg/mL,< 0.1 ng/mL
